Where two headings read alike, the source gives them in different places.

Broadly, the Cmax is the highest concentration seen after dosing.

One data set deals with panel of cancer cells. The data set can be described thus: In vitro screening of a panel of cancer cells. The format is cell-based. An excerpt:
Understanding the clinical relevance of the cancer stemness markers and identifying their predictive response to the Compound of the Invention is used herein to assist clinical development by selecting patients that will most likely to derive clinical benefit. In some embodiments, the methods provided herein use one or more well-known cancer stemness marker(s), such as, for example, the expression of p-STAT3 and/or other cancer stem cell related proteins such as β-catenin and NANOG. All these proteins can be easily detected using any of a variety of art-recognized techniques. In some embodiments, the cancer sternness marker is detected with immunohistochemistry with antibodies. Using the archival tissue samples collected from the phase I trial with the Compound of the Invention, the patient response to the Compound of the Invention was analyzed based on biomarker status. […] A significant improvement in survival was detected for patients with nuclear β-Catenin localization compared with patients having β-catenin localized to the cell membrane, HR=0.043, p value <0.001. As further evidence, in an in vitro study screening a panel of cancer cells, the cell lines with nuclear β-Catenin show a lower IC50 for the Compound of the Invention. […] Thus, STAT3 activation is involved in nuclear β-catenin regulation. […]

Data set [1] in a line: Phase 1 extension study of higher strength capsule (DP2A): pharmacokinetics. The format is in vivo. Conditions: human, plasma, oral, 500 mg; for AUC(0-t): read-out: AUC0-24. The text has this: However, with the higher strength capsules, we observed worsening gastrointestinal adverse effects including nausea, vomiting, and diarrhea in patients.
Additional studies were run using an oral formulation of the Compound of the Invention, specifically a higher strength capsule formulation (DP2A). As described herein, the Compound of the Invention blocks cancer stem cell (CSC) self-renewal and induces cell death in CSC as well as non-stem cancer cells by inhibiting Stat3, β-catenin, and Nanog pathways, and has shown potent anti-tumor and anti-metastatic activities pre-clinically. […] The studies described herein were designed as a phase 1 extension study to evaluate a formulation designed for pivotal trials to determine pharmacokinetics (PK) in patients with advanced cancer.
On Day 1, patients received a single 500 mg dose of an oral administration formulation of the Compound of the Invention (DP1). On Day 4 and Day 8, a higher strength capsule designed for pivotal trials (DP2A) was given with fasting then fed conditions. DP2A was then administered daily until disease progression or unacceptable toxicity. Endpoints were safety, PK and preliminary anticancer activity.

Where [2] appears, read: Patient 0053, single 500 mg dose - fed.
[3] abbreviates: Patient 0054, single 500 mg dose - fed.
Setting [4] is: Patient 0061, single 500 mg dose - fed.
Where [5] appears, read: Patient 0070, single 500 mg dose - fed.

On to `CC(=O)c1cc2c(o1)C(=O)c1ccccc1C2=O` [Compound 1, 2-acetylnaphtho[2,3-b]furan-4,9-dione], for which, in the data set with panel of cancer cells, the “IC50 in cell lines with nuclear β-Catenin” value is on record as “lower IC50”. In addition, the Cmax in data set [1] (setting [2]) turned out to be 6.61 µM; in data set [1] (setting [3]), 6.25 µM; in data set [1] (setting [4]), 1.54 µM; in data set [1] (setting [5]), 2.25 µM. The AUC(0-t) turned out to be 79.6 µM·h in data set [1] (setting [2]), 49.8 µM·h in data set [1] (setting [3]), 10.6 µM·h in data set [1] (setting [4]) and 20.1 µM·h in data set [1] (setting [5]).

Values taken from patent US10543189B2, “2-acetylnaphtho[2,3-b]furan -4,9-dione for use on treating cancer” (Boston Biomedical, Inc., priority 2013, dated 2020).
